After the bases stand the sugars from the 5' end (letter, count) and the backbone: PS all phosphorothioate, else s phosphorothioate and o phosphodiester by linkage. Methylation of C is not given here. l = locked nucleic acid (LNA); d = 2'-deoxy (DNA)
Biological target: SNHG14
Conditions: ASO
[1] = Mouse Primary Neuronal Cell, 0.005 µM

Sequence | target mRNA inhibition (Human Neuronal Cell, 0.2 µM) | target mRNA inhibition (Human Neuronal Cell, 1 µM) | target mRNA inhibition (Human Neuronal Cell, 7.5 µM) | further results
CTTTAATGCTTCTAACT (sugars l4 d11 l2, PS) | 28% | 55% | – | –
TAAAATTATTTATACACCA (sugars l5 d8 l2 d1 l3, PS) | – | – | 65% | –
CAACATTATTAACCACCTTA (sugars l1 d15 l4, PS) | – | – | 36% | –
TTTTATACCTTTCTTTAACC (sugars llddddldddddddldddll, PS) | – | – | 51% | –
TACTATCTTTGACATTC (sugars l4 d11 l2, PS) | 48% | 59% | – | –
TTTATCAATATCTTCTCA (sugars l4 d10 l1 d1 l2, PS) | – | – | 69% | –
TTCTGTTTCCATTTACA (sugars l4 d11 l2, PS) | 43% | 39% | – | –
CCAGACTCCAATATTT (sugars l4 d10 l2, PS) | 55% | 39% | – | –
TCTGTATACACCATCCC (sugars l2 d10 l1 d2 l2, PS) | – | – | 61% | –
TTCTACTAAACATACAC (sugars l3 d11 l3, PS) | 40% | 49% | – | –
ACATCTCATACTTGCT (sugars l2 d11 l3, PS) | – | – | – | target mRNA inhibition [1]: 96.3%
CCTTTCATTAACATTTA (sugars l3 d11 l3, PS) | 46% | 52% | – | –
CAAAGATCATTCTCAACA (sugars l1 d4 l1 d7 l5, PS) | – | – | 65% | –
TGTTTATACCCTTTCCAA (sugars lddlddddddddlddlll, PS) | – | – | 61% | –
CAAAGATCATTCTCAACA (sugars l3 d1 l2 d10 l2, PS) | – | – | 61% | –
TTTATCAATATCTTCTCA (sugars lllldldddddddlddll, PS) | – | – | 62% | –
ATTTATTTCCATTTATTTTC (sugars lldldlddddddddldldll, PS) | – | – | 55% | –
ATTTTTTTCTTACTATCTTC (sugars ldddddlddddddldddlll, PS) | – | – | 43% | –
TCTGTATACACCATCCC (sugars l1 d11 l1 d2 l2, PS) | – | – | 54% | –
TATCTCATTTACATTATT (sugars l4 d12 l2, PS) | 27% | 43% | – | –
CAACATTATTGACACT (sugars l2 d10 l4, PS) | 45% | 61% | – | –
ACCACCTAAGACCTCAA (sugars l2 d11 l4, PS) | 38% | 60% | – | –

Sequence | target mRNA inhibition (Human Neuronal Cell, 0.2 µM) | target mRNA inhibition (Human Neuronal Cell, 1 µM) | target mRNA inhibition (Human Neuronal Cell, 7.5 µM) | further results
TGTTTCCATCTACTATTA (sugars lddldlddddddddddll, PS) | – | – | 59% | –
TTGATTCAATTCCCTTA (sugars l2 d9 l1 d3 l2, PS) | – | – | 60% | –
TTATACCTTTCTTTAACCCT (sugars ldldddddddddddddldll, PS) | – | – | 53% | –
CTTTCCATTTATTTCCATT (sugars ldddddddddddldldlll, PS) | – | – | 66% | –
TCCATTTATTTCCATTTAT (sugars ldldlldddddddldddll, PS) | – | – | 55% | –
TTTATCAATATCTTCTCAC (sugars ldlddlddddddldddlll, PS) | – | – | 61% | –
ATTTACACTTAATTATACTT (sugars lldlddlddddddllldlll, PS) | – | – | 10% | –
TCTTTCCATTTATTTCCATT (sugars l2 d3 l1 d11 l3, PS) | – | – | 56% | –
ATTGATTCAATTCCCTT (sugars llddlddddddddldll, PS) | – | – | 64% | –
GATCATTCTCAACAATTA (sugars llddllddddddllddll, PS) | – | – | 49% | –
ATTTCTCTATGTCACAT (sugars l3 d11 l3, PS) | 31% | 35% | – | –
CAACATTATTAACCACCTTA (sugars l2 d4 l1 d11 l2, PS) | – | – | 37% | –
TGCAAATACCTCTTCA (sugars l4 d10 l2, PS) | 64% | 69% | – | –
TAATCCTATTCCAACT (sugars l3 d10 l3, PS) | 16% | 17% | – | –
TTTACTCTGCAATACAC (sugars l3 d11 l3, PS) | 41% | 56% | – | –
CAAAGATCATTCTCAAC (sugars l5 d6 l1 d1 l4, PS) | – | – | 22% | –
TTATAGCCATTCTATCT (sugars lddldddddddldddll, PS) | – | – | 36% | –
TCACTTTCCAGATATCA (sugars l4 d11 l2, PS) | 17% | 5% | – | target mRNA inhibition (Human Neuronal Cell, 5 µM): 15%; target mRNA inhibition [1]: 92%
AAAATCTCAACTACCATTTT (sugars ldlllldddddddddlddll, PS) | – | – | 50% | –
AAAATCTCAACTACCATTT (sugars lldldlddddddddlllll, PS) | – | – | 41% | –
TGAAAATCTCAACTACCAT (sugars lddldlddddddldddlll, PS) | – | – | 19% | –
AGCAACATTATTAACCAC (sugars ldllldddddddllldll, PS) | – | – | 35% | –

Sequence | target mRNA inhibition (Human Neuronal Cell, 0.2 µM) | target mRNA inhibition (Human Neuronal Cell, 1 µM) | target mRNA inhibition (Human Neuronal Cell, 7.5 µM) | further results
GTACTTACACATCTAT (sugars l2 d10 l4, PS) | 45% | 26% | – | –
CATCTGATCTCACACAT (sugars l4 d11 l2, PS) | 29% | 46% | – | –
CTCTCCTCAAGATCAA (sugars l3 d10 l3, PS) | 37% | 49% | – | –
TGTTTCCATCTACTATTA (sugars lddddlddddddddldll, PS) | – | – | 62% | –
GCACATTCTTTCTATAC (sugars l3 d11 l3, PS) | 39% | 59% | – | –
TTATAGCCATTCTATCT (sugars lddllddddddldldll, PS) | – | – | 15% | –
TATTCTTACCGTCTTTA (sugars l3 d11 l3, PS) | 40% | 63% | – | –
AAGATCATTCTCAACAAT (sugars l2 d1 l3 d8 l4, PS) | – | – | 44% | –
TCACACCTATTATATAA (sugars l3 d11 l3, PS) | 11% | 16% | – | –
GTTTCCATCTACTATTA (sugars l2 d11 l4, PS) | 60% | 75% | – | –
GATCATTCTCAACAATTAA (sugars lldddlddddddlldllll, PS) | – | – | 39% | –
TCACTTTCCAGATATCA (sugars l2 d13 l2, PS) | 23% | -6% | – | target mRNA inhibition (Human Neuronal Cell, 5 µM): 17%; target mRNA inhibition [1]: 46.6%
AATTTTTTTCTTACTATCTT (sugars ldddldlddddddlldddll, PS) | – | – | 34% | –
TTATAGCCATTCTATCT (sugars ldddldddddddlddll, PS) | – | – | 31% | –
TTTATCAATATCTTCTCAC (sugars l1 d12 l2 d1 l3, PS) | – | – | 60% | –
TTGCTTCCAATTTATTT (sugars l4 d11 l2, PS) | 25% | 44% | – | –
GAATTTCAACTACTAT (sugars l2 d10 l4, PS) | 34% | 45% | – | –
ACTGTTTATACCCTTTCC (sugars l1 d15 l2, PS) | – | – | 40% | –
TAAAGATCCCATCACTC (sugars l3 d11 l3, PS) | 44% | 50% | – | –
TGTTTATACCCTTTCCAA (sugars lldldlddddddldddll, PS) | – | – | 54% | –

Source: the OligoGym collection
